Results on 22 molecules are retold here after ChEMBL document CHEMBL1157845, “Structure-activity relationship of new anti-tuberculosis agents derived from oxazoline and oxazole benzyl esters” (Eur J Med Chem, 2010).

Values after ≈ are worked out from the molar mass of the structure shown. Active and inactive are the calls of the source. The rule behind the calls is not given here. Where only a bound is given, the exact number is not on record here.

One experiment has as its system Mycobacterium tuberculosis. Put plainly: Antimycobacterial activity against Mycobacterium tuberculosis H37Rv ATCC 27294 in GAS medium after 1 week by microplate alamar blue assay. The format is functional. To be noted: H37Rv ATCC 27294, 168 h.
The MIC is the lowest concentration that inhibits growth of the organism. Read a high MIC as weaker potency. With `COc1ccccc1C1=N[C@H](C(=O)OCc2ccccc2)CO1`, the MIC was determined as 37 µM (≈ 11.5 µg/mL). That is a double-digit micromolar value.

`CCCOc1ccc(C2=N[C@H](C(=O)OCc3ccccc3)CO2)cc1`: the minimal inhibitory concentration (MIC) stood at 2.97 µM (≈ 1.01 µg/mL). This MIC is about 12-fold lower than that of the molecule before.

Turning to `C[C@@H]1OC(c2ccccc2)=N[C@@H]1C(=O)O`, the MIC was more than 128 µM.

With `CCOc1ccc(C2=N[C@H](C(=O)OCc3ccccc3)CO2)cc1`, the lowest concentration to inhibit growth (MIC) was 60.6 µM (≈ 19.7 µg/mL). In other words, the double-digit micromolar range.

As to `O=C(OCc1ccccc1)[C@@H]1COC(c2cccc(Br)c2)=N1`, the MIC was 24.2 µM (≈ 8.72 µg/mL).

In the case of `COc1ccc(C2=N[C@H](C(=O)OCc3ccccc3)CO2)cc1Cl`, inhibition of growth (MIC) required 60.7 µM (≈ 21 µg/mL).

The molecule `COC(=O)[C@@H]1COC(c2ccccc2O)=N1` showed an MIC of more than 128 µM.

Consider `COc1cccc(-c2nc(C(=O)OCc3ccccc3)co2)c1`, for which the minimal inhibitory concentration (MIC) was determined as 6.04 µM (≈ 1.87 µg/mL). In other words, the single-digit micromolar range.

With `O=C(OCc1ccccc1)c1coc(-c2cccnc2Oc2ccccc2)n1`, the MIC stood at 6.86 µM (≈ 2.55 µg/mL).

`COc1ccc(CNC(=O)c2coc(-c3cccc(Cl)c3)n2)cc1OC` came in with an MIC of 118 µM (≈ 44 µg/mL).

`Cc1ccc(-c2nc(C(=O)OCc3ccccc3)co2)cc1` came in with a minimum inhibitory concentration (MIC) of 12.8 µM (≈ 3.77 µg/mL).

As to `O=C(O)[C@@H]1COC(c2ccccc2O)=N1`, the MIC was more than 128 µM.

In turn, `O=C(O)[C@@H]1COC(c2cccc(Cl)c2)=N1` came in with a minimum inhibitory concentration (MIC) of more than 128 µM.

In turn, `O=C(OCc1ccccc1)[C@@H]1COC(c2cncc(-c3ccccc3)c2)=N1` had a minimal inhibitory concentration (MIC) of 12.5 µM (≈ 4.48 µg/mL). This lies in the double-digit micromolar range.

`Nc1ccc(C2=N[C@H](C(=O)OCc3ccccc3)CO2)cc1` returned a minimum inhibitory concentration (MIC) of 25.4 µM (≈ 7.53 µg/mL).

Take `O=C(OCc1ccccc1)c1coc(-c2ccncc2)n1`: the minimum inhibitory concentration (MIC) was 1.42 µM (≈ 0.398 µg/mL).

In turn, `O=C(OCc1ccccc1)c1coc(-c2ccc(OCc3ccccc3)c(F)c2)n1` showed an MIC of 3.03 µM (≈ 1.22 µg/mL).

The molecule `N#Cc1cccc(C2=N[C@H](C(=O)OCc3ccccc3)CO2)c1` gave a minimal inhibitory concentration (MIC) of 47.2 µM (≈ 14.5 µg/mL). Compared with the last molecule, the MIC is about 16-fold higher.

On to `O=C(OCc1ccccc1)[C@@H]1COC(c2ccc([N+](=O)[O-])cc2OCc2ccccc2)=N1`, for which the MIC came out at 15.6 µM (≈ 6.75 µg/mL). Compared with the last molecule, the MIC is about 3-fold lower.

Take `COC(=O)[C@H]1N=C(c2ccccc2)O[C@H]1C`: the minimum inhibitory concentration (MIC) is more than 128 µM.

In turn, `O=C(OCc1ccccc1)c1coc(-c2cccc(Br)c2)n1` yielded a minimum inhibitory concentration (MIC) of 1.93 µM (≈ 0.691 µg/mL).

`COc1cccc(C2=N[C@H](C(=O)OCc3ccccc3)CO2)c1`: the MIC amounted to 24.8 µM (≈ 7.72 µg/mL).

Another experiment relates to Mycobacterium tuberculosis. Nature of the experiment: Antimycobacterial activity against Mycobacterium tuberculosis Erdman infected in BALB/c mouse assessed as reduction of bacterial load at 200 mg/kg, po qd for 5 days per week administered 60 days after infection measured after 85 days post infection. The format is functional, organism-based. Set-up: dose 200 mg/kg.
Settings: not given
In the case of `COc1ccccc1C1=N[C@H](C(=O)OCc2ccccc2)CO1`, the result was inactive.

Consider `CCCOc1ccc(C2=N[C@H](C(=O)OCc3ccccc3)CO2)cc1`, for which the result was inactive.

As for `C[C@@H]1OC(c2ccccc2)=N[C@@H]1C(=O)O`, the outcome was inactive.

Take `CCOc1ccc(C2=N[C@H](C(=O)OCc3ccccc3)CO2)cc1`: the result was inactive.

As for `O=C(OCc1ccccc1)[C@@H]1COC(c2cccc(Br)c2)=N1`, the outcome was inactive.

Turning to `COc1ccc(C2=N[C@H](C(=O)OCc3ccccc3)CO2)cc1Cl`, the result was inactive.

As to `COC(=O)[C@@H]1COC(c2ccccc2O)=N1`, the result was inactive.

`COc1cccc(-c2nc(C(=O)OCc3ccccc3)co2)c1`: the result was inactive.

On to `O=C(OCc1ccccc1)c1coc(-c2cccnc2Oc2ccccc2)n1`, for which the outcome was inactive.

As for `COc1ccc(CNC(=O)c2coc(-c3cccc(Cl)c3)n2)cc1OC`, the outcome was inactive.

With `Cc1ccc(-c2nc(C(=O)OCc3ccccc3)co2)cc1`, the outcome was inactive.

Take `O=C(O)[C@@H]1COC(c2ccccc2O)=N1`: the result was inactive.

As to `O=C(O)[C@@H]1COC(c2cccc(Cl)c2)=N1`, the result was inactive.

With `O=C(OCc1ccccc1)[C@@H]1COC(c2cncc(-c3ccccc3)c2)=N1`, the result was inactive.

Regarding `Nc1ccc(C2=N[C@H](C(=O)OCc3ccccc3)CO2)cc1`, the result was inactive.

Take `O=C(OCc1ccccc1)c1coc(-c2ccncc2)n1`: the outcome was inactive.

Consider `O=C(OCc1ccccc1)c1coc(-c2ccc(OCc3ccccc3)c(F)c2)n1`, for which the result was inactive.

As to `N#Cc1cccc(C2=N[C@H](C(=O)OCc3ccccc3)CO2)c1`, the result was inactive.

Regarding `O=C(OCc1ccccc1)[C@@H]1COC(c2ccc([N+](=O)[O-])cc2OCc2ccccc2)=N1`, the result was inactive.

Take `COC(=O)[C@H]1N=C(c2ccccc2)O[C@H]1C`: the outcome was inactive.

Consider `O=C(OCc1ccccc1)c1coc(-c2cccc(Br)c2)n1`, for which the outcome was inactive.

`COc1cccc(C2=N[C@H](C(=O)OCc3ccccc3)CO2)c1`: the result was inactive.

The test system of the next experiment is Mycobacterium tuberculosis. Put plainly: Antimycobacterial activity against Mycobacterium tuberculosis H37Rv ATCC 27294 in GAST medium after 1 week by microplate alamar blue assay. The format is functional. To be noted: H37Rv ATCC 27294, 168 h.
For `COc1ccccc1C1=N[C@H](C(=O)OCc2ccccc2)CO1`, the MIC came out at 29.2 µM (≈ 9.09 µg/mL). That is a double-digit micromolar value.

On to `CCCOc1ccc(C2=N[C@H](C(=O)OCc3ccccc3)CO2)cc1`, for which the minimum inhibitory concentration (MIC) was found to be 22.4 µM (≈ 7.6 µg/mL). This MIC and that of the molecule before are within 1.5-fold of each other.

The molecule `C[C@@H]1OC(c2ccccc2)=N[C@@H]1C(=O)O` returned an MIC of more than 128 µM.

Molecule `CCOc1ccc(C2=N[C@H](C(=O)OCc3ccccc3)CO2)cc1` gave an MIC of 30.5 µM (≈ 9.92 µg/mL).

The molecule `O=C(OCc1ccccc1)[C@@H]1COC(c2cccc(Br)c2)=N1` yielded a minimum inhibitory concentration (MIC) of 52.5 µM (≈ 18.9 µg/mL).

The molecule `COc1ccc(C2=N[C@H](C(=O)OCc3ccccc3)CO2)cc1Cl` returned a minimal inhibitory concentration (MIC) of 7.58 µM (≈ 2.62 µg/mL). Against the preceding molecule, the MIC is about 6.9-fold lower.

`COC(=O)[C@@H]1COC(c2ccccc2O)=N1` gave an MIC of more than 128 µM.

Take `COc1cccc(-c2nc(C(=O)OCc3ccccc3)co2)c1`: the lowest concentration to inhibit growth (MIC) was 3.76 µM (≈ 1.16 µg/mL).

`O=C(OCc1ccccc1)c1coc(-c2cccnc2Oc2ccccc2)n1` displayed a minimal inhibitory concentration (MIC) of 91.4 µM (≈ 34 µg/mL). Compared with the last molecule, the MIC is about 24-fold higher.

`COc1ccc(CNC(=O)c2coc(-c3cccc(Cl)c3)n2)cc1OC`: the lowest concentration to inhibit growth (MIC) was 48.1 µM (≈ 17.9 µg/mL).

`Cc1ccc(-c2nc(C(=O)OCc3ccccc3)co2)cc1` gave a minimal inhibitory concentration (MIC) of 7.68 µM (≈ 2.25 µg/mL). Against the preceding molecule, the MIC is about 6.3-fold lower.

Take `O=C(O)[C@@H]1COC(c2ccccc2O)=N1`: the MIC was more than 128 µM.

On to `O=C(O)[C@@H]1COC(c2cccc(Cl)c2)=N1`, for which the minimum inhibitory concentration (MIC) turned out to be 106 µM (≈ 23.9 µg/mL).

In the case of `O=C(OCc1ccccc1)[C@@H]1COC(c2cncc(-c3ccccc3)c2)=N1`, 29.8 µM (≈ 10.7 µg/mL) was the least that counted as inhibitory (MIC).

For the molecule `Nc1ccc(C2=N[C@H](C(=O)OCc3ccccc3)CO2)cc1`, it took 26.8 µM (≈ 7.94 µg/mL) to inhibit growth (MIC).

Molecule `O=C(OCc1ccccc1)c1coc(-c2ccncc2)n1` yielded a minimal inhibitory concentration (MIC) of 6.1 µM (≈ 1.71 µg/mL).

For `O=C(OCc1ccccc1)c1coc(-c2ccc(OCc3ccccc3)c(F)c2)n1`, the lowest concentration to inhibit growth (MIC) was 3.86 µM (≈ 1.56 µg/mL).

Turning to `N#Cc1cccc(C2=N[C@H](C(=O)OCc3ccccc3)CO2)c1`, the minimal inhibitory concentration (MIC) worked out at 75.1 µM (≈ 23 µg/mL).

As to `O=C(OCc1ccccc1)[C@@H]1COC(c2ccc([N+](=O)[O-])cc2OCc2ccccc2)=N1`, the lowest concentration to inhibit growth (MIC) was 4.86 µM (≈ 2.1 µg/mL). Against the preceding molecule, the MIC is about 15-fold lower.

Regarding `COC(=O)[C@H]1N=C(c2ccccc2)O[C@H]1C`, the MIC was more than 128 µM.

`O=C(OCc1ccccc1)c1coc(-c2cccc(Br)c2)n1` came in with an MIC of 6.08 µM (≈ 2.18 µg/mL).

`COc1cccc(C2=N[C@H](C(=O)OCc3ccccc3)CO2)c1` had an MIC of 42.5 µM (≈ 13.2 µg/mL).
